# Measurements published in paper PMC12567141, “Design, Synthesis and Biological Evaluation of Pyrazolopyrimidine Derivatives as Aryl Hydrocarbon Receptor Antagonists for Colorectal Cancer Immunotherapy” (Pharmaceutics, 2025).
# Columns and labels:
# AhR = AhR (Danio rerio, UniProt Q9YGV3); assay: IC50 determination, Cyp1a dual luciferase reporter assay in transfected COS-7 cells; assay type: cell-based; settings: AhR2/ARNT-1c/Cyp1a-luciferase, TCDD 10 nM
# Description: All experiments were conducted as described previously unless stated otherwise. COS-7 cells were seeded onto 24-well plate until approximately 65% confluency. The cells were transfected with ARNT-1c expression plasmid (50 ng), AhR2 expression plasmid (5 ng), Cyp1a-firefly luciferase reporter plasmid (20 ng) and pRL-TK Renilla luciferase plasmid (2 ng) using Lipofectamine 3000 (Thermo Fisher Scientific) according to the manufacturer’s protocol. The pEGFP-C1 plasmid (Clontech, Tempe, AZ, USA) was used to assess the transfection efficiency. At 5 h post transfection, serially diluted test compounds at indicated concentration were added to the cells. Simultaneously, TCDD (10 nM) or indicated compounds with the highest concentration were added in the control wells. At 1 h post compound treatment, TCDD (10 nM) was added to all wells except the control wells. At 18 h post TCDD treatment, the medium was removed, and the cells washed with Dulbecco’s phosphate buffered saline (DPBS) and harvested using 1x Passive Lysis Buffer (Promega, Madison, WI, USA). The dual luciferase assay was carried out using a Dual-Luciferase Reporter Assay System (Promega, Madison, WI, USA) and an Orion L Microplate Luminometer (Titertek Berthold, Pforzheim, BW, Germany) as per manufacturer’s protocol. The relative light unit (RLU) values were normalized and expressed as toxic induced ratio (TIR). IC50 was determined using Prism 9.0 (GraphPad Software).
# MC38 and CT26 cells = assay: Apoptosis analysis (Annexin V / propidium iodide); assay type: cell-based; settings: 24 h treatment
# Description: Cells were washed with PBS containing 1% horse serum and stained with the FITC-Annexin V Apoptosis Detection Kit I (BD Biosciences) at room temperature for 30 min in the dark. DNA content, cell-cycle profiles, and forward scatter profiles were determined using the Becton Dickinson LSRFortessa^TM and analyzed with FlowJo software v11.
# [1] = test system: AhR, AhRR, and IDO-1 mRNA expression in MC38 and CT26 cells; assay: qRT-PCR of AhR downstream genes in kynurenine-stimulated cells; assay type: cell-based; settings: 200 μM kynurenine-stimulated MC38 and CT26 cells, 24 h, qPCR
# Description: MC38 and CT26 were treated with different concentrations of 7k and 200 μM Kynurenine for 24 h. RNA from treated cells was extracted and cDNA was synthesized using the ReverTraAce™ qPCR RT Kit (TOYOBO, Osaka, Japan), followed by evaluation of AhR, AhRR, and IDO-1 mRNA expression with quantitative real-time PCR. PCR conditions were 95 °C preincubation, maintained for 1 min, and then 1 cycle of 95 °C denaturation for 15 s, 55 °C annealing for 15 s, and 72 °C polymerization for 45 s. A total of 40 cycles were repeated. Advanced Relative Quantification analysis was used to confirm the structure of the expected quantitative real-time PCR product, and the variability of other gene amplification was calibrated by relative comparison with GAPDH expression (Table 1).
# [2] = test system: PD-1 expression in Jurkat/PD-1 cells; assay: PD-1 expression by FACS in PHA-treated Jurkat/PD-1 cells; assay type: cell-based
# Description: For analysis of PD-1 expression in PD-1-overexpressing Jurkat T cells (Jurkat/PD-1 cells), Jurkat/PD-1 cells in 24-well plates were treated with 2 μg/mL Phytohaemagglutinin (PHA) and incubated with 5 and 10 μM 7k for 24 h. Cells were collected were stained with APC-conjugated PD-1 Ab at 4 °C for 30 min (BioLegend). After washing with FACS buffer (Biolegend) three times, the cells were analysed using Becton Dickinson LSRFortessa^TM and analyzed with FlowJo software. Isotype-matched monoclonal antibodies were used as controls. The data were analysed using Flowjo analysis software (FlowJo LLC, Ashland, OR, USA).
# CT26 tumor = assay: In vivo therapy, CT26 syngeneic model; parameters: species or system mice
# Description: In vivo experiments were conducted using 6-week-old male immunocompetent BALB/c and C57BL/6 with 18–20 g body weight (Orient Bio Inc., Seungnam, Republic of Korea). All animal experimental procedures were maintained and used in accordance with the Guidelines for the Care and Use of Laboratory Animals of the Institute of Laboratory Animal Center, Daegu-Gyeongbuk Medical Innovation Foundation (K-MEDI hub). The animal studies were conducted after approval by the institutional reviewer board on the Ethics of Animal Experiments of the Daegu-Gyeongbuk Medical Innovation Foundation (approval number: KMEDI-24041103-01).
# Study 1: Antitumor activity of 7k alone in mice with either CT26 syngeneic model or MC38 syngeneic model. Mice were subcutaneously challenged with 5 × 10^5 either MC38 or CT26 cells. When tumor formation was detected via inspection and palpation, 7k treatment was initiated once a day for 14 days by oral gavage.
# Study 2: Antitumor activity of combination with anti-PD1 and 7k in CT26 tumor bearing mice. Mice were subcutaneously challenged with 5 × 10^5 CT26 cells. Tumor bearing mice were divided into four groups as following; Group 1: vehicle, Group 2: 10 mg/kg anti-PD1, Group 3: 10 mg/kg 7k, and Group 4: 10 mg/kg anti-PD1 + 10 mg/kg 7k. 7k was administered by oral gavage once daily. Anti-PD1 antibody (clone RPM1-14, Bio X cell, Lebanon, NH, USA) was injected intraperitoneally every 3 days for 4 doses.
# The 7k was dissolved in solution including 5% DMSO, 55% DW, and 40% PEG. Tumor size was measured with a caliper at the indicated time points, and tumor volume (mm^3) was calculated using the following formula, tumor volume (mm^3) = d2 × D/2, where d and D are the shortest and longest diameters in mm, respectively.
# [3] = test system: CD8+ IFNγ + T lymphocytes; assay: Flow cytometry of CD8+ IFNγ+ T lymphocytes in splenocytes of tumour-bearing mice; assay type: in vivo; settings: vs vehicle or single therapy
# Description: For analysis of CD8+ IFNγ + T lymphocytes, splenocytes were collected from tumour-bearing mice and stimulated with a cell activation cocktail (BioLegend, San Diego, CA, USA) in the presence of Brefeldin A for 6 h. Splenocytes were stained with APC-conjugated CD8 and APC-Cy7-conjugated IFNγ Ab at 4 °C for 30 min (BioLegend). After washing with FACS buffer (Biolegend) three times, the cells were analysed using Becton Dickinson LSRFortessa^TM and analyzed with FlowJo software. Isotype-matched monoclonal antibodies were used as controls. The data were analysed using Flowjo analysis software v11. (Flowjo LLC, Ashland, OR, USA).
# AhR, sequence (Q9YGV3 1-1027): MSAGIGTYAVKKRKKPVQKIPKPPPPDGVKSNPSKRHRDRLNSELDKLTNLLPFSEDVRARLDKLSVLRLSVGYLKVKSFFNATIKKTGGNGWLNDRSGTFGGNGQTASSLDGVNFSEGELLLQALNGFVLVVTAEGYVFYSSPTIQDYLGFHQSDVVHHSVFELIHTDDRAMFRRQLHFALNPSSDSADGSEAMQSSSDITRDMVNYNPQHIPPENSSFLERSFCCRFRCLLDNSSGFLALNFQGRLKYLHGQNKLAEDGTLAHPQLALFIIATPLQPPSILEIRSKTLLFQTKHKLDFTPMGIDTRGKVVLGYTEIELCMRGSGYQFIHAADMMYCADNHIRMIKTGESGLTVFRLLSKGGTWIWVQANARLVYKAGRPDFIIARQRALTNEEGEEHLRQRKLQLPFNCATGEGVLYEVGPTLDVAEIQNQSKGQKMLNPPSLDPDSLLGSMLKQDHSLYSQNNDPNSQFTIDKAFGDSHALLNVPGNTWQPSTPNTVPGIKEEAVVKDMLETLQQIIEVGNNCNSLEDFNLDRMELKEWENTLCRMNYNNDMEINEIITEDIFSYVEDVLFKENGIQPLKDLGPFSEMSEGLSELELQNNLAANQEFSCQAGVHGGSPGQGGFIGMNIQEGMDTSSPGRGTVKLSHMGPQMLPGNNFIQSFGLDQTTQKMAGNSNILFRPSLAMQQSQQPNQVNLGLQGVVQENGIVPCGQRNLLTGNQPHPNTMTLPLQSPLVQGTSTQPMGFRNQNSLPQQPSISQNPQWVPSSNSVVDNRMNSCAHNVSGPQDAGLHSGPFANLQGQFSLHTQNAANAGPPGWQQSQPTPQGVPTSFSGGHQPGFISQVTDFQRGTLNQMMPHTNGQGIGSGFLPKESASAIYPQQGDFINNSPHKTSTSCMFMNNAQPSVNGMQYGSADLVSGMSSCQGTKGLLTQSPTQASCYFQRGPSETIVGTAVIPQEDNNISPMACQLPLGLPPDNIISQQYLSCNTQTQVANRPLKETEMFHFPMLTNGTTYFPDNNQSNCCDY
# AhR, sequence (Q64FF9 1-503 partner): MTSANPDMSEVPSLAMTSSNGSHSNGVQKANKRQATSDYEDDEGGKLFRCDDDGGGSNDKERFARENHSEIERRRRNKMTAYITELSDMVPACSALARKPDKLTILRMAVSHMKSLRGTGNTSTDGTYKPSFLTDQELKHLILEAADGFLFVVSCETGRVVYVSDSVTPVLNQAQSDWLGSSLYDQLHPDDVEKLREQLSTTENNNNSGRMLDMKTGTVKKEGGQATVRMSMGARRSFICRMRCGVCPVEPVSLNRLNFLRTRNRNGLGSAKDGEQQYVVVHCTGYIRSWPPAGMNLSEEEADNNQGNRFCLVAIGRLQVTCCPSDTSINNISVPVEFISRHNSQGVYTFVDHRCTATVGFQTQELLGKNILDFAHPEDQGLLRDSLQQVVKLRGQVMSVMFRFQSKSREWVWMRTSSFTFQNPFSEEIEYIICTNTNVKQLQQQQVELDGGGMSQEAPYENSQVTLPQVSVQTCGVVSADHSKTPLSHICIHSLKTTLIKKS
smiles,measurement,setting,value
"CC(C)n1cc2nc(-c3cc(F)cc(F)c3)nc(NCCc3c[nH]c4ccccc34)c2n1 [Compound 7k, N-(2-(1H-indol-3-yl)ethyl)-5-(3,5-difluorophenyl)-2-isopropyl-2H-pyrazolo [4,3-d]pyrimidin-7-amine]",IC50,AhR,13.7 nM
same,apoptosis,MC38 and CT26 cells,increase in apoptosis
same,"expression levels of AhR, AhRR, and IDO-1",[1],"reduced the expression levels of AhR, AhRR, and IDO-1"
same,PD-1 expression,[2],reduced PD-1 expression
same,tumor growth inhibition (TGI),"CT26 tumor; CT26 model, combination study, 7k 10 mg/kg oral daily 14 days, anti-PD1 10 mg/kg i.p. every 3 days x4",49%
same,tumor weight,"CT26 tumor; CT26 tumor bearing mice, vs vehicle-treated mice (Figure S4)",significantly lower
same,tumor growth inhibition (TGI),"CT26 tumor; CT26 tumor-bearing mice, single agent, 10 mg/kg oral once a day for 14 days",33%
same,levels of CD8+ IFNγ T lymphocytes,[3],increased the levels of CD8+ IFNγ T lymphocytes
